Data as given in patent US5753709A, “N-acyl-2 aryl cyclopropylmethylamine derivatives as melatonergics” (Bristol-Myers Squibb Company, priority 1996, dated 1998).

tested on: rats; test: not given; settings: exogenous administration; cited from earlier work

| SMILES | effect on circadian rhythms |
| --- | --- |
| COc1ccc2[nH]cc(CCNC(C)=O)c2c1 [melatonin, N-acetyl-5-methoxytryptamine] | found to synchronize circadian rhythms in rats |

biological target: T1, human melatonin receptor (human ML1A) (Homo sapiens, UniProt P48039); test: Melatonergic binding: displacement of 2-[125I]-iodomelatonin at the human melatonin receptor (human ML1A in COS-1 membranes); settings: Table 5; displacement of 2[125I]-Iodomelatonin (100 pM), 37° C., 1 hour
T1 construct: expressed in transfected cells; host or cells: COS-1 cells (transient, pcDNAI, DEAE-dextran); membrane homogenates
Experimental: The melatonergic binding of the compounds of Formula I was determined by a modification of the method of Reppert, S. M. et al. (Neuron, Volume 13, pages 1177-1185, 1994). […] The reagents, membranes, and other parameters used in the assay are described below:
(a) 50 mM Tris buffer containing 12.5 mM MgCl2, and 2 mM EDTA (pH 7.4 at 37° C.).
(b) Wash buffer: 20 mM Tris base containing 2 mM MgCl2 (pH 7.4 at room temperature).
(c) 6-Chloromelatonin (10^-5 M final concentration).
(d) 2-[^125 I]-Iodomelatonin (100 pM final concentration). (Source: NEN) Membrane preparation: The cDNA (human ML1A) in pcDNAI was introduced into COS-1 cells by the DEAE-dextran method. Three days later, after media removal, the plates were washed with buffered saline; the cells removed using Hank's balanced salt solution and pelleted. The supernant was discarded and the pellets frozen. For membrane homogenates, the pellets were thawed and resuspended in TME buffer, Tris base, MgCl2, EDTA (pH 7.4 at 37° C.), and supplemented with aprotinin, leupeptin, and phenylmethylsulfonyl fluoride. The cells were homogenized and centrifuged; the resulting pellet resuspended in TME and frozen. At assay, the small aliquot was thawed on ice and resuspended in TME buffer. Incubation: 37° C. for 1 hour. Reaction is terminated by filtration.

T1 sequence (P48039 whole entry): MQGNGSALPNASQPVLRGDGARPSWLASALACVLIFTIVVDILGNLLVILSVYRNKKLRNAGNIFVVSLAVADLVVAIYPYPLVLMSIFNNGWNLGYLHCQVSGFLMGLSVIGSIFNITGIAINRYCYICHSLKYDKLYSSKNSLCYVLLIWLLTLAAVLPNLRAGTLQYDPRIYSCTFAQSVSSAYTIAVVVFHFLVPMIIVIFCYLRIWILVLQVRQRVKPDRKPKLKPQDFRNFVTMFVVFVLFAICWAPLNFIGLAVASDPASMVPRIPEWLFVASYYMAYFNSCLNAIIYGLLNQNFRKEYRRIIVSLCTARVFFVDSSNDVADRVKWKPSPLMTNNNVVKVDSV

| SMILES | IC50 [nM] |
| --- | --- |
| CCCC(=O)NC[C@@H]1C[C@H]1c1cccc(CC)c1 (relative stereo) [Example 114, (trans)-N-[2-[(3-Ethylphenyl)cycloprop-1-yl]methyl] butanamide] | 5 to 40 |
| CCCC(=O)NC[C@@H]1C[C@H]1c1cccc(OCCCCC2CCCCC2)c1 (relative stereo) [Example 116] | 5 to 40 |
| CCCC(=O)NC[C@@H]1C[C@H]1c1cccc(OCCCC2CCCC2)c1 (relative stereo) [Example 120, (trans)-N-[[2-[3-[(3-Cyclopentylprop-1-yl)oxy]phenyl]cycloprop-1-yl]methyl] butanamide] | < 5 |
| CCCC(=O)NC[C@@H]1C[C@H]1c1cccc(OCCC(C)CC(C)(C)C)c1 (relative stereo) [Example 121] | 5 to 40 |
| C#CC(C)=CCOc1cccc([C@@H]2C[C@H]2CNC(=O)CCC)c1 (relative stereo) [Example 122] | 5 to 40 |
| CC(C)C(=O)NC[C@@H]1C[C@H]1c1cccc(F)c1 (single isomer, unassigned) [Example 65, (-)-(trans)-N-[[2-(3-Fluorophenyl)cycloprop-1-yl]methyl]-2-methylpropanamide] | 250 to 600 |
| CCCC(=O)NC[C@@H]1C[C@H]1c1ccccc1 (single isomer, unassigned) [Example 90, (-)-(trans)-N-[(2-Phenylcycloprop-1-yl)methyl] butanamide] | 40 to 250 |

Other lines, results leading:

| IC50 [nM] | SMILES |
| --- | --- |
| < 5 | CCCC(=O)NC[C@@H]1C[C@H]1c1cccc(OCCCCCc2ccccc2)c1 (relative stereo) [Example 110, (trans)-N-[[2-[3-[(5-Phenylpent-1-yl)oxy]phenyl]cycloprop-1-yl]methyl] butanamide] |
| < 5 | CCCC(=O)NC[C@@H]1C[C@H]1c1cccc(OCCc2cccc(C(F)(F)F)c2)c1 (relative stereo) [Example 123, (trans)-N-[[2-[3-[2-[3-(Trifluoromethyl)phenyl]ethoxy]phenyl]cycloprop-1-yl]methyl] butanamide] |
| 5 to 40 | CCCC(=O)NC[C@@H]1C[C@H]1c1cccc(OCCc2cccc(F)c2)c1 (relative stereo) [Example 125, (trans)-N-[[2-[3-[2-(3-Fluorophenyl)ethoxy]phenyl]cycloprop-1-yl]methyl] butanamide] |
| 5 to 40 | CCCC(=O)NC[C@@H]1C[C@H]1c1cccc(OCCCc2ccc(OC)cc2)c1 (relative stereo) [Example 127, (trans)-N-[[2-[3-[3-(4-Methoxyphenyl)propoxy]phenyl]cycloprop-1-yl]methyl]butanamide] |
| 5 to 40 | CCCC(=O)NC[C@@H]1C[C@H]1c1cccc(OCCc2ccccc2F)c1 (relative stereo) [Example 128, (trans)-N-[[2-[3-[2-(2-Fluorophenyl)ethoxy]phenyl]cycloprop-1-yl]methyl] butanamide] |
| < 5 | CCCC(=O)NC[C@@H]1C[C@H]1c1cccc(OCCCc2cccc(OC)c2)c1 (single isomer, unassigned) [Example 84, (-)-(trans)-N-[[2-[3-[3-(3-Methoxyphenyl)propoxy]phenyl]cycloprop-1-yl)methyl] butanamide] |
| 5 to 40 | CCCC(=O)NC[C@@H]1C[C@H]1c1cc(OCCCc2cccc(OC)c2)ccc1I (single isomer, unassigned) [Example 93, (-)-(trans)-N-[[2-[2-Iodo-5-[3-(3-methoxyphenyl)propoxy]phenyl]cycloprop-1-yl)methyl] butanamide] |

same assay, conditions: Table 6; displacement of 2[125I]-Iodomelatonin (100 pM), 37° C., 1 hour

| IC50 [nM] | SMILES |
| --- | --- |
| 40 to 250 | COc1cccc([C@H]2[C@H](CNC(=O)C(C)C)C2(F)F)c1 (relative stereo) [Example 134, (trans)-N-[[3-(3-Methoxyphenyl)-2,2-difluoro--cycloprop-1-yl]methyl]-2-methylpropanamide] |
| 250 to 600 | CCCC(=O)NCC[C@@H]1C[C@H]1c1cccc(OC)c1 (single isomer, unassigned) [Example 16, (-)-(trans)-N-[[2-(3-Methoxyphenyl)cyclopropyl]ethyl]butanamide] |

same assay, conditions: read-out: Binding affinity (IC50) at the human melatonin receptor; Table 5; displacement of 2[125I]-Iodomelatonin (100 pM), 37° C., 1 hour

| IC50 [nM] | SMILES |
| --- | --- |
| < 5 | [2H]C([2H])([2H])Oc1cccc([C@@H]2C[C@H]2CNC(=O)CCC)c1 (relative stereo) [Example 111, (trans)-N-[2-[(3-Trideuteromethoxyphenyl)cycloprop-1-yl]methyl] butanamide] |
